Results on one compound are retold here after patent US12377092B2, “Polycomb inhibitors and uses thereof” (FONDAZIONE ISTITUTO FIRC DI ONCOLOGIA MOLECOLARE (IFOM), priority 2017, dated 2025).

Read-outs that look alike come from different tables or passages of the source.

Experiment [1] concerns the target T1, Bmi1 (Mus musculus, UniProt P25916).
T1 construct: western blot analysis of Bmi1 on lysates from confluent wild type (WT) and CCM3 knockout (CCM3-KO) cells treated with PTC209; endogenous in cells; host or cells: immortalized mouse lung endothelial cells, wild type and CCM3 knock out (VECPAC/CCM3 fl/fl, TAT-Cre)
T1 sequence (P25916 1-324): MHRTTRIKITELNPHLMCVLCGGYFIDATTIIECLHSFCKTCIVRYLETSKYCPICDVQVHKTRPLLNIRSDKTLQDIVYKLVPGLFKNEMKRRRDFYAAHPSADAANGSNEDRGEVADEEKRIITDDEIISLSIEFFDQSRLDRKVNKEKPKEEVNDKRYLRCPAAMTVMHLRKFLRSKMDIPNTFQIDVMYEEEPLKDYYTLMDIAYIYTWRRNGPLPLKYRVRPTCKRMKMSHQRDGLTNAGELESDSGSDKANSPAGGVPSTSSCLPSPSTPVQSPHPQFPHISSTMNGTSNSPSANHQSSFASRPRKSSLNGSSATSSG
In words: Western blot analysis of Bmi1, wild type and CCM3 knock out immortalized lung endothelial cells. Type of experiment: cell-based. As to conditions: 24 hours of treatment, 1 uM PTC209 vs DMSO. The protocol: (§1) Confluent cells were lysed with boiling modified Laemi sample Buffer (2% SDS, 20% glycerol, and 125 mM Tris-HCl, pH 6.8). Lysates were incubated for 10 minutes at 100° C. to allow proteins denaturation. Protein concentration was estimated using the BCA Protein Assay Kit (Pierce). Equal amount of proteins was loaded on a gel, separated by SDS-PAGE and transferred to a Protran Nitrocellulose Membrane (Whatman) 0.2 um pores. The membranes were blocked for 1 hour at RT in Tris Buffered Saline (TBS: NaCl 150 mM, Tris-HCl 10 mM pH 7.4) plus 0.1% Tween-20 containing 5% BSA or milk. The membranes were incubated with primary antibodies diluted in TBST (TBS plus 0.1% Tween-20) containing 5% of either BSA or milk overnight at 4° C. Next, membranes were rinsed three times with TBST for 5 minutes each and incubated for 45 minutes at RT with HRP-linked secondary antibodies diluted in TBST containing 5% BSA/milk. Membranes were rinsed three times with TBST for 5 minutes each and specific bindings were detected by enhanced chemiluminescence (ECL) system (Amersham Bioscience) using ChemiDoc XRS gel imaging system (Bio-Rad).
CCM3 knock out cells were immortalized lung endothelial cells derived from VECPAC/CCM3^fl/fl mice, treated with TAT-Cre recombinase. […] As control the same cell line without TAT-Cre treatment were used. […]
(A western blot detects proteins with antibodies after separation by electrophoresis.)

Experiment [2] concerns VE-cadherin. In words: Western blot analysis of VE-cadherin, CCM3 knock out cells. Format: cell-based, mouse. The note with it: 72 hours. The protocol:
(§2) Cells were seeded 6.3×10^4 cells/cm^2. The day after, PTC209 and UNC1999 were added to the confluent cells. Drugs were left for one or three days depending on the aim of the experiment. Final concentrations used for the two drugs were: 1 uM PTC209 and 5 uM UNC1999.
as §1, with “The membranes were incubated with primary antibodies diluted in TBST (TBS plus 0.1% Tween-20) containing 5% of either BSA or milk overnight at 4° C. Next, membranes were rinsed three times with TBST for 5 minutes each and incubated for 45 minutes at RT with HRP-linked secondary antibodies diluted in TBST containing 5% BSA/milk.” left out
Experiment with combined PTC209 and UNC1999 treatments was repeated with the same experimental conditions described before and junction organisation was analysed through VE-cadherin staining and protein expression analysis (FIG. 19).

Experiment [3] has as its system Axin2, Serpin1, Id1, Hes1 and Dll4. In words: Real-time PCR of target genes of β-catenin, TGFβ and Delta-Notch pathways, wild type and CCM3 knock out cells. Format: cell-based, mouse. As to conditions: PTC209 72 hours. The protocol: (§3) RNA extraction was performed both with (A) RNeasy kits (Promega) or (B) RNAeasy Mini Kit (QIAGEN). The latter allows also the extraction of proteins from the same sample. The RNA (500 ng) was reverse transcribed with random hexamers (High Capacity cDNA Archive kits; Applied Biosystems) in a final volume of 30 uL. Reaction were made with a thermocycler (Eppendorf) 10 min at 25° C. followed by 2 hours at 37° C. cDNA (5 ng) was amplified in triplicate in a reaction volume of 15 uL using TaqMan Gene Expression Assays (Applied Biosystems) in a ABI/Prism 7900 HT using a pre PCR step of 10 min at 95° C., followed by 40 cycles of 15 seconds at 95° C. and 60 seconds at 60° C. For each sample, the expression level was determined with the comparative threshold cycle (Ct) method, and normalized to the housekeeping genes encoding 18S, glyceraldehyde-3-phosphate dehydrogenase (GAPDH) and hypoxanthine-guanine phosphoribosyltransferase (hprt1). Ct or threshold cycle, represents the PCR cycle at which an increase in reporter fluorescence above a base-line signal can first be detect.
To perform these experiments, wild type and CCM3 knock out cells were treated with PTC209 with the same experimental conditions described before, and subsequently lysed for gene expression analysis.
Axin2 was checked as evidence of β-catenin pathway activation (FIG. 25A), Serpin1 and Id1 for TGFβ signalling (FIG. 25B), while Hes1 and Dll4 for Notch pathway activation (FIG. 25C).
(In general: In qPCR the cycle at which signal appears reflects the starting amount.)

The test system of experiment [4] is VE-cadherin. In words: Real time analysis of VE-cadherin transcript, CCM3 knock out cells. Format: cell-based, mouse. As to conditions: PTC209. As for the experimental part: as §3
Western blot and real time analysis of VE-cadherin were performed in parallel to confirm the reduction of VE-cadherin observed by immunofluorescence (FIG. 8A-C). VE-cadherin protein and transcript levels, as expected, were reduced in CCM3 knock out cells compare to wild type, as already shown (Bravi et al., 2015).

Experiment [5] has as its system CCM1 knock out cells. Nature of the experiment: Immunofluorescence of junction organisation (VE-cadherin, PECAM1), wild type and CCM1 knock out cells. Type of experiment: cell-based, mouse. The source says:
Also for CCM1 model, the inventors tested the effect of Bmi1 inhibition on junction organisation. The inventors repeated PTC209-treatment on CCM1 model with the same experimental conditions described before, and the inventors analysed VE-cadherin and PECAM1 expression by immunofluorescence analysis (FIG. 12) in parallel with real time analysis (FIG. 13).

The subject of experiment [6] is EndMT markers (Klf4, Sca1 and Fsp1). In words: RT-PCR of EndMT markers in wild type cells infected with lentivirus expressing LefΔN-β-catΔC. Type of experiment: cell-based, mouse. As to conditions: wild type cells infected with 40 ul LefΔN-β-catΔC lentivirus; PTC209 72 hours from nine days after infection. The protocol:
as §3
One day before infection, 300.000 cells/well were seeded in a 6-wells plate in complete medium as described before.
The day after 40 uL per well of the concentrated virus was added to the cells medium and leaved overnight at 37° C. […]

For experiment [7] the test system is unchanged. Type of experiment: cell-based, mouse. The note with it: 72 hours. The protocol:
as §2, §3

Where [8] appears, read: CCM3 knock out cells (pathological conditions).
Where [9] appears, read: CCM3 knock out cells (pathological).
The mark [10] stands for this setting: wild type cells (physiological).

Consider `COc1cc(Br)c(Nc2nc(-c3c(C)nc4ncccn34)cs2)c(Br)c1` [PTC209, N-(2,6-dibromo-4-methoxyphenyl)-4-(2-methylimidazo[1,2-a]pyrimidin-3-yl)thiazol-2-amine], for which the “Bmi1 protein expression (western blot)” value in experiment [1] (CCM3 knock out cells) and in experiment [1] (wild type cells) was “downregulation of Bmi1” in each case. The “VE-cadherin protein expression level (western blot)” value in experiment [2] was “did not show any rescue”. In experiment [3] (setting [8]), the “Hes1 transcript (Notch pathway)” value is listed as “downregulated”. The “Serpin1 transcript (TGFβ signalling)” value in experiment [3] (setting [8]) is recorded as “upregulated”. In addition, the “Axin2 transcript (β-catenin pathway)” value in experiment [3] (setting [9]) and in experiment [3] (setting [10]) was “downregulation” throughout. The “Id1 transcript (TGFβ signalling)” value in experiment [3] (setting [9]) and in experiment [3] (setting [10]) was “downregulation” in each case. Further, the “VE-cadherin transcript level (real time analysis)” value in experiment [4] is “did not rescue”. In addition, the “junction organisation (VE-cadherin, PECAM1 immunostaining)” value in experiment [5] (CCM1 knock out cells) was “visible reorganisation of junctions”; in experiment [5] (wild type cells, CCM1 model), “remained unchanged”. In experiment [6], the “Sca1 and Fsp1 upregulation (RT-PCR)” value is listed as “strongly reduced”. Also, the “Klf4 transcript (real time analysis)” value in experiment [7] (CCM1 knock out cells) is reported as “downregulated”; in experiment [7] (wild type cells (physiological condition), CCM1 model), “not downregulated”. Moreover, the “Sca1 and Fsp1 transcripts (real time analysis)” value in experiment [7] (CCM1 knock out cells) is “downregulated”. Also, the “EndMT markers (Klf4, Sca1, Fsp1) transcript levels (real time analysis)” value in experiment [7] (CCM1 knock out cells, vs DMSO) was “strong inhibition”.
